Data from ChEMBL document CHEMBL2040848, “Synthesis and bioactivity evaluation of rhodanine derivatives as potential anti-bacterial agents” (2012).
≈ marks a conversion by molar mass, not a printed value.

Tests used:
Type in all cases: functional
[1] = tested on: Staphylococcus aureus; test: Antibacterial activity against Staphylococcus aureus KCTC 4220 after 24 hrs by two-fold serial dilution method; conditions: KCTC 4220, 24 h
[2] = tested on: Staphylococcus aureus; test: Antibacterial activity against Staphylococcus aureus KCTC 209 after 24 hrs by two-fold serial dilution method; conditions: KCTC 209, 24 h
[3] = tested on: Staphylococcus aureus; test: Antibacterial activity against Staphylococcus aureus KCTC 503 after 24 hrs by two-fold serial dilution method; conditions: KCTC 503, 24 h
[4] = tested on: Escherichia coli; test: Antibacterial activity against Escherichia coli 1356 after 24 hrs by two-fold serial dilution method; conditions: Escherichia coli, 1356, 24 h
[5] = tested on: Staphylococcus aureus; test: Antibacterial activity against methicillin-resistant Staphylococcus aureus CCARM 3167 after 24 hrs by two-fold serial dilution method; conditions: CCARM 3167, 24 h
[6] = tested on: Staphylococcus aureus; test: Antibacterial activity against methicillin-resistant Staphylococcus aureus CCARM 3506 after 24 hrs by two-fold serial dilution method; conditions: CCARM 3506, 24 h
[7] = tested on: Staphylococcus aureus; test: Antibacterial activity against quinolone-resistant Staphylococcus aureus CCARM 3505 after 24 hrs by two-fold serial dilution method; conditions: CCARM 3505, 24 h
[8] = tested on: Staphylococcus aureus; test: Antibacterial activity against quinolone-resistant Staphylococcus aureus CCARM 3519 after 24 hrs by two-fold serial dilution method; conditions: CCARM 3519, 24 h

SMILES	MIC [1] [µg/mL]	MIC [2] [µg/mL]	MIC [3] [µg/mL]	MIC [4] [µg/mL]	MIC [5] [µg/mL]	MIC [6] [µg/mL]	MIC [7] [µg/mL]	MIC [8] [µg/mL]
O=C(COc1ccc(/C=C2\SC(=S)N([C@@H](Cc3ccc(O)cc3)C(=O)O)C2=O)cc1)c1ccc(Cl)cc1Cl	8 (≈ 13.6 µM)	4 (≈ 6.8 µM)	4 (≈ 6.8 µM)	> 64	8 (≈ 13.6 µM)	8 (≈ 13.6 µM)	8 (≈ 13.6 µM)	8 (≈ 13.6 µM)
O=C(COc1ccc(/C=C2\SC(=S)N([C@@H](Cc3ccc(O)cc3)C(=O)O)C2=O)cc1)c1ccccc1Br	32 (≈ 53.5 µM)	16 (≈ 26.7 µM)	16 (≈ 26.7 µM)	> 64	16 (≈ 26.7 µM)	32 (≈ 53.5 µM)	16 (≈ 26.7 µM)	32 (≈ 53.5 µM)
O=C(COc1ccc(/C=C2\SC(=S)N([C@@H](Cc3ccc(O)cc3)C(=O)O)C2=O)cc1)c1cccc(Br)c1	8 (≈ 13.4 µM)	8 (≈ 13.4 µM)	8 (≈ 13.4 µM)	> 64	8 (≈ 13.4 µM)	8 (≈ 13.4 µM)	8 (≈ 13.4 µM)	8 (≈ 13.4 µM)
O=C(COc1ccc(/C=C2\SC(=S)N([C@@H](Cc3ccc(O)cc3)C(=O)O)C2=O)cc1)c1ccc(Br)cc1	8 (≈ 13.4 µM)	4 (≈ 6.68 µM)	4 (≈ 6.68 µM)	> 64	8 (≈ 13.4 µM)	8 (≈ 13.4 µM)	8 (≈ 13.4 µM)	8 (≈ 13.4 µM)
O=C(COc1ccc(/C=C2\SC(=S)N([C@@H](Cc3ccc(O)cc3)C(=O)O)C2=O)cc1)c1ccccc1F	32 (≈ 59.5 µM)	8 (≈ 14.9 µM)	16 (≈ 29.8 µM)	> 64	16 (≈ 29.8 µM)	16 (≈ 29.8 µM)	16 (≈ 29.8 µM)	16 (≈ 29.8 µM)
O=C(COc1ccc(/C=C2\SC(=S)N([C@@H](Cc3ccc(O)cc3)C(=O)O)C2=O)cc1)c1ccc(F)cc1	8 (≈ 14.9 µM)	8 (≈ 14.9 µM)	8 (≈ 14.9 µM)	> 64	8 (≈ 14.9 µM)	8 (≈ 14.9 µM)	8 (≈ 14.9 µM)	8 (≈ 14.9 µM)
O=C(COc1ccc(/C=C2\SC(=S)N([C@@H](Cc3ccc(O)cc3)C(=O)O)C2=O)cc1)c1ccccc1	32 (≈ 61.6 µM)	32 (≈ 61.6 µM)	32 (≈ 61.6 µM)	> 64	32 (≈ 61.6 µM)	32 (≈ 61.6 µM)	32 (≈ 61.6 µM)	32 (≈ 61.6 µM)
Cc1ccc(C(=O)COc2ccc(/C=C3\SC(=S)N([C@@H](Cc4ccc(O)cc4)C(=O)O)C3=O)cc2)cc1	32 (≈ 60 µM)	4 (≈ 7.5 µM)	8 (≈ 15 µM)	> 64	16 (≈ 30 µM)	16 (≈ 30 µM)	16 (≈ 30 µM)	16 (≈ 30 µM)
COc1cccc(C(=O)COc2ccc(/C=C3\SC(=S)N([C@@H](Cc4ccc(O)cc4)C(=O)O)C3=O)cc2)c1	32 (≈ 58.2 µM)	8 (≈ 14.6 µM)	8 (≈ 14.6 µM)	> 64	8 (≈ 14.6 µM)	16 (≈ 29.1 µM)	8 (≈ 14.6 µM)	16 (≈ 29.1 µM)
COc1ccccc1C(=O)COc1ccc(/C=C2\SC(=S)N([C@@H](Cc3ccc(O)cc3)C(=O)O)C2=O)cc1	32 (≈ 58.2 µM)	8 (≈ 14.6 µM)	8 (≈ 14.6 µM)	> 64	8 (≈ 14.6 µM)	8 (≈ 14.6 µM)	8 (≈ 14.6 µM)	8 (≈ 14.6 µM)
O=C(COc1ccc(/C=C2\SC(=S)N([C@@H](Cc3c[nH]c4ccccc34)C(=O)O)C2=O)cc1)c1ccccc1Cl	8 (≈ 13.9 µM)	4 (≈ 6.93 µM)	4 (≈ 6.93 µM)	> 64	8 (≈ 13.9 µM)	8 (≈ 13.9 µM)	8 (≈ 13.9 µM)	8 (≈ 13.9 µM)
O=C(COc1ccc(/C=C2\SC(=S)N([C@@H](Cc3c[nH]c4ccccc34)C(=O)O)C2=O)cc1)c1ccc(Cl)cc1Cl	8 (≈ 13.1 µM)	4 (≈ 6.54 µM)	8 (≈ 13.1 µM)	> 64	4 (≈ 6.54 µM)	8 (≈ 13.1 µM)	4 (≈ 6.54 µM)	8 (≈ 13.1 µM)
O=C(COc1ccc(/C=C2\SC(=S)N([C@@H](Cc3c[nH]c4ccccc34)C(=O)O)C2=O)cc1)c1ccccc1Br	8 (≈ 12.9 µM)	4 (≈ 6.44 µM)	4 (≈ 6.44 µM)	> 64	4 (≈ 6.44 µM)	8 (≈ 12.9 µM)	4 (≈ 6.44 µM)	8 (≈ 12.9 µM)
O=C(COc1ccc(/C=C2\SC(=S)N([C@@H](Cc3c[nH]c4ccccc34)C(=O)O)C2=O)cc1)c1cccc(Br)c1	4 (≈ 6.44 µM)	2 (≈ 3.22 µM)	4 (≈ 6.44 µM)	> 64	4 (≈ 6.44 µM)	4 (≈ 6.44 µM)	4 (≈ 6.44 µM)	4 (≈ 6.44 µM)
O=C(COc1ccc(/C=C2\SC(=S)N([C@@H](Cc3c[nH]c4ccccc34)C(=O)O)C2=O)cc1)c1ccc(Br)cc1	8 (≈ 12.9 µM)	4 (≈ 6.44 µM)	4 (≈ 6.44 µM)	> 64	8 (≈ 12.9 µM)	8 (≈ 12.9 µM)	8 (≈ 12.9 µM)	8 (≈ 12.9 µM)
O=C(COc1ccc(/C=C2\SC(=S)N([C@@H](Cc3c[nH]c4ccccc34)C(=O)O)C2=O)cc1)c1ccccc1F	8 (≈ 14.3 µM)	8 (≈ 14.3 µM)	8 (≈ 14.3 µM)	> 64	8 (≈ 14.3 µM)	8 (≈ 14.3 µM)	8 (≈ 14.3 µM)	8 (≈ 14.3 µM)
